According to the supplement of paper PMC10307832:

Experiments:
Experiment in all cases: relative viability (nuclei count vs DMSO), 5 days (fraction); higher = more cells survive
Pemetrexed + Bortezomib = compound: Nc1nc2[nH]cc(CCc3ccc(C(=O)N[C@@H](CCC(=O)O)C(=O)O)cc3)c2c(=O)[nH]1 [Pemetrexed] + CC(C)C[C@H](NC(=O)[C@H](Cc1ccccc1)NC(=O)c1cnccn1)B(O)O [Bortezomib] (partner 0.002 µM)
Method in brief: (§1)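 For relative viability, nuclei counts in treated wells were divided by those in vehicle wells. Lung cancer cell lines had been pin-tool dosed in 1536-well plates the day after seeding and cultured for 5 days, then fixed and stained in one step (final 0.05% Triton X-100, 1% formaldehyde, 1 ug/ml Hoechst) and imaged at 4×. Doses were one drug alone or a fixed anchor-drug dose plus five library-drug doses (not always all listed) in √10 steps, and values are duplicate-plate medians.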

Pemetrexed + Crizotinib = compound: Nc1nc2[nH]cc(CCc3ccc(C(=O)N[C@@H](CCC(=O)O)C(=O)O)cc3)c2c(=O)[nH]1 [Pemetrexed] + C[C@@H](Oc1cc(-c2cnn(C3CCNCC3)c2)cnc1N)c1c(Cl)ccc(F)c1Cl [Crizotinib] (partner 1 µM)
Method in brief: as §1

Pemetrexed + Alpelisib = compound: Nc1nc2[nH]cc(CCc3ccc(C(=O)N[C@@H](CCC(=O)O)C(=O)O)cc3)c2c(=O)[nH]1 [Pemetrexed] + Cc1nc(NC(=O)N2CCC[C@H]2C(N)=O)sc1-c1ccnc(C(C)(C)C(F)(F)F)c1 [Alpelisib] (partner 2 µM)
Method in brief: as §1

Pemetrexed + Dasatinib = compound: Nc1nc2[nH]cc(CCc3ccc(C(=O)N[C@@H](CCC(=O)O)C(=O)O)cc3)c2c(=O)[nH]1 [Pemetrexed] + Cc1nc(Nc2ncc(C(=O)Nc3c(C)cccc3Cl)s2)cc(N2CCN(CCO)CC2)n1 [Dasatinib] (partner 0.075 µM)
Method in brief: as §1

Cell Line | relative viability (Pemetrexed + Bortezomib; first compound 0.002 µM) | relative viability (Pemetrexed + Bortezomib; first compound 0.006325 µM) | relative viability (Pemetrexed + Bortezomib; first compound 0.02 µM) | relative viability (Pemetrexed + Bortezomib; first compound 0.06325 µM) | relative viability (Pemetrexed + Bortezomib; first compound 0.2 µM) | relative viability (Pemetrexed + Crizotinib; first compound 0.002 µM) | relative viability (Pemetrexed + Crizotinib; first compound 0.006325 µM) | relative viability (Pemetrexed + Crizotinib; first compound 0.02 µM) | relative viability (Pemetrexed + Crizotinib; first compound 0.06325 µM) | relative viability (Pemetrexed + Crizotinib; first compound 0.2 µM) | relative viability (Pemetrexed + Alpelisib; first compound 0.002 µM) | relative viability (Pemetrexed + Alpelisib; first compound 0.006325 µM) | relative viability (Pemetrexed + Alpelisib; first compound 0.02 µM) | relative viability (Pemetrexed + Alpelisib; first compound 0.06325 µM) | relative viability (Pemetrexed + Alpelisib; first compound 0.2 µM) | relative viability (Pemetrexed + Dasatinib; first compound 0.002 µM) | relative viability (Pemetrexed + Dasatinib; first compound 0.006325 µM) | relative viability (Pemetrexed + Dasatinib; first compound 0.02 µM) | relative viability (Pemetrexed + Dasatinib; first compound 0.06325 µM) | relative viability (Pemetrexed + Dasatinib; first compound 0.2 µM)
NCI-H2087 | 0.834 | 0.639 | 0.919 | 1.04 | 0.523 | 0.945 | 0.818 | 0.912 | 0.85 | 0.786 | 0.939 | 1.02 | 0.926 | 1.01 | 0.603 | 0.819 | 0.808 | 0.974 | 0.751 | 0.59
BEN | 0.838 | 0.847 | 1.01 | 0.855 | 0.688 | 0.992 | 0.859 | 0.896 | 0.787 | 0.715 | 1.09 | 1.02 | 1.03 | 0.989 | 0.774 | 0.374 | 0.288 | 0.345 | 0.303 | 0.349
NCI-H3122 | 1.02 | 1.02 | 0.899 | 0.99 | 0.877 | 0.275 | 0.261 | 0.261 | 0.244 | 0.233 | 0.94 | 0.833 | 0.734 | 0.772 | 0.521 | 0.707 | 0.815 | 0.659 | 0.674 | 0.463
LCLC-97TM1 | 0.523 | 1.08 | 0.679 | 0.32 | 0.131 | 0.263 | 0.352 | 0.404 | 0.338 | 0.224 | 0.265 | 0.2 | 0.257 | 0.173 | 0.237 | 0.743 | 0.892 | 0.967 | 0.797 | 0.588
NCI-H2228 | 0.934 | 0.918 | 1.07 | 0.754 | 0.339 | 0.424 | 0.514 | 0.409 | 0.358 | 0.31 | 0.833 | 0.721 | 0.752 | 0.474 | 0.319 | 0.444 | – | 0.472 | 0.337 | 0.2
COR-L23 | 0.795 | 0.939 | 0.995 | 0.376 | 0.179 | 0.589 | 0.631 | 0.636 | 0.26 | 0.14 | 0.803 | 0.719 | 0.72 | 0.259 | 0.176 | 0.457 | 0.468 | 0.396 | 0.263 | 0.135
EMC-BAC-2 | 0.993 | 0.922 | 1.11 | 1.06 | 1.04 | 0.76 | 0.639 | 0.831 | 0.803 | 0.741 | 0.795 | 0.676 | 0.801 | 0.738 | 0.693 | 0.161 | 0.344 | 0.32 | 0.331 | 0.27
A-427 | 0.929 | 1.06 | 1.04 | 0.96 | 1.06 | 0.905 | 0.894 | 0.953 | 0.936 | 0.884 | 1.09 | 1.1 | 1.05 | 1.1 | 1.04 | 0.618 | 0.696 | 0.711 | 0.689 | 0.664
